Legend:
[1] = biological target: T1, EcR interaction with E52 or SMRT (Drosophila melanogaster, UniProt P34021); assay: Yeast two-hybrid assay, E52-EcR or SMRT-EcR interaction; type: cell-based; settings: 3 μM ligand
T1 construct: the region corresponding to amino acids 223-878 of EcRB1; expressed in transfected cells; host or cells: Y190 yeast cells
T1 sequence (P34021 223-878): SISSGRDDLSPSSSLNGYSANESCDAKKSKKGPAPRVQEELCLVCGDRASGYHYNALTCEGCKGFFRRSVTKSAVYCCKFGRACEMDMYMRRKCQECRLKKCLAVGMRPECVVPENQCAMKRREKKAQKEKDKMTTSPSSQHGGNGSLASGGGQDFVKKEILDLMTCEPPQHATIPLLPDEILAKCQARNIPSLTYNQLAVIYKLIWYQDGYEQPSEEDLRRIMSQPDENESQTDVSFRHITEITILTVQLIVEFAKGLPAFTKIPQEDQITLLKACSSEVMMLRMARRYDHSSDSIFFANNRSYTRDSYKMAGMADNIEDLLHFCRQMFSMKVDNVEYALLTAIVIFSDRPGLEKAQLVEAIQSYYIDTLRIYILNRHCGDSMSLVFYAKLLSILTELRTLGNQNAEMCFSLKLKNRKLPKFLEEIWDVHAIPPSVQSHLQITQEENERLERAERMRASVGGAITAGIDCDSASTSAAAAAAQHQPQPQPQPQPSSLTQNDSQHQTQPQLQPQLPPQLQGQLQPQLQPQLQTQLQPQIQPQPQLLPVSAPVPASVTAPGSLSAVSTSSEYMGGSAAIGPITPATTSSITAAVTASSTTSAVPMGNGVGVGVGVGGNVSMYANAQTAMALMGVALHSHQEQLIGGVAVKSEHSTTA
Protocol: Transformants were selected onto DO-Leu-Trp-His plates containing 40 mM 3-aminotriazole (Sigma) for 3-4 days. Surviving yeast colonies were picked as primary positives and restreaked on selection plates to isolate single clones. Activation domain plasmids were rescued from the selected positive transformants for further analysis. Each clone was evaluated by testing its potential interaction with several other nuclear receptors using the yeast two-hybrid assays. […] Quantitative liquid assay of β-galactosidase was performed on positive clones 16 hr after treating the yeast cells with no ligand, or with 3 μM ligand.

[2] = biological target: T2, EcR:USP complex with SMRTER ERID1/ERID2 (Drosophila melanogaster, UniProt P34021); assay: In vitro GST pull-down of 35S-labeled EcR by GST-ERID1 / GST-ERID2; type: binding; settings: 3 μM, when USP is present
T2 construct: made in house; host or cells: EcR and USP: TNT (Promega) coupled transcription-translation; GST fusions: E. coli DH5
T2 sequence (P34021 1-878): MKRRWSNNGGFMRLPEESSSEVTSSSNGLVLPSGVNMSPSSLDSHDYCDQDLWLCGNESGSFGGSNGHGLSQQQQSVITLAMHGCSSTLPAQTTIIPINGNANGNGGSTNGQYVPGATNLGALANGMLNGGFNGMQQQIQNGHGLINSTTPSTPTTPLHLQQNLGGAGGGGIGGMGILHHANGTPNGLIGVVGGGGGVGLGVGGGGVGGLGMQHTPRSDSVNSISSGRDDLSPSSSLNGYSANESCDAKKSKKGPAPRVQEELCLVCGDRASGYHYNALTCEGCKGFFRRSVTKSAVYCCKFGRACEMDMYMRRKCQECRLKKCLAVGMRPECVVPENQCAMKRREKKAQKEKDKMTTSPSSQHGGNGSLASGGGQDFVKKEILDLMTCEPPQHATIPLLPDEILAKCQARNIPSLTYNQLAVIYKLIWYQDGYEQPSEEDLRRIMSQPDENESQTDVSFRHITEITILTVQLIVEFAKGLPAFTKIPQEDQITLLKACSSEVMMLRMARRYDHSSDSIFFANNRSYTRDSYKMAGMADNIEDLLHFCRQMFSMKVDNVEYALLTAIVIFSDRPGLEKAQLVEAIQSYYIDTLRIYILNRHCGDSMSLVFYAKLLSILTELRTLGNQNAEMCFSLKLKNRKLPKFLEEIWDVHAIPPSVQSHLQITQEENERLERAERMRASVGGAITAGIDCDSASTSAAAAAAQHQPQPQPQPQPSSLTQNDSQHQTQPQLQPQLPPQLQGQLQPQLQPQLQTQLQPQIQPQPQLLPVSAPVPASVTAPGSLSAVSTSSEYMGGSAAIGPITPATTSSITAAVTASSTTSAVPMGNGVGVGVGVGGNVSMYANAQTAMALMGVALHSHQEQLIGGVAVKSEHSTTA
T2 sequence (P20153 1-508 partner): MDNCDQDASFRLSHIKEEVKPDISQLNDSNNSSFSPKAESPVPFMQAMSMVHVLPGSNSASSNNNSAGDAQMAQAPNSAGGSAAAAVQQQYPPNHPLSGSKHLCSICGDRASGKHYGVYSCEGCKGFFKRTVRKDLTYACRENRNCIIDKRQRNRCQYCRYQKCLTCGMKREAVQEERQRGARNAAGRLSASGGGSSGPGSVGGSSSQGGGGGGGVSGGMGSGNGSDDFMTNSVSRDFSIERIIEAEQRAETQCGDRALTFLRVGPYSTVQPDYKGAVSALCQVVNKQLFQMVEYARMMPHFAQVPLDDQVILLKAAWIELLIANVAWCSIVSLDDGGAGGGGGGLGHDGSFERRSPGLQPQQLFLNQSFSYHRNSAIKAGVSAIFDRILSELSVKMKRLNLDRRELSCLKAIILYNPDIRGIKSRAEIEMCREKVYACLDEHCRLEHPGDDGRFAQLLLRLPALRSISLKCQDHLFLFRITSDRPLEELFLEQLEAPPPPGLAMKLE
Protocol: Glutathione S-transferase fusion proteins, including GST-X, GST-ERID1 (amino acids 1698-2063 of SEQ ID NO:1), and GST-ERID2 (amino acids 2951-3038 of SEQ ID NO:1), were expressed in E. coli DH5 cells, and extracts were affinity purified by binding to glutathione Sepharose 4B beads. Bound proteins used as affinity matrices in pull-down experiments were first equilibrated with the binding buffer (20 mM HEPES [pH 7.9], 150 mM NaCl, 1 mM EDTA, 4 mM MgCl2, 1 mM DTT, 0.06% NP40, 10% Glycerol, 0.25 mM PMSF, 1 mg BSA). For pull-down assays using GST-ERID1 (amino acids 1698-2063 of SEQ ID NO:1) and GST-ERID2 (amino acids 2951-3038 of SEQ ID NO:1), additional hsp27EcRE (0.05 μg/ml) was added to the binding buffer. In this experiment, […] of 50% GST-protein beads slurry, containing approximately 1 μg of proteins, were incubated with 10 μl of 35S-methionine-labeled proteins in 300 μl of the binding buffer (with or without 3 μM of MurA as indicated) for 30 min at room temperature. After the incubation, beads were washed three times with the binding buffer (with or without ligand) and resuspended in SDS-PAGE sample buffer before loading. After electrophoresis, bound radio-labeled proteins were visualized by autoradiography. […]

## CC(C)CC[C@@H](O)[C@](C)(O)[C@H]1CC[C@@]2(O)C3=CC(=O)[C@]4(O)C[C@@H](O)[C@@H](O)C[C@]4(C)[C@H]3[C@H](O)C[C@]12C [Muristerone A]
[1]
  dissociation of the interaction between E52 and EcR by ligand: not dissociated
  dissociation of the interaction between SMRT and EcR by ligand: not dissociated
[2]
  effect of ligand on GST-ERID/EcR pull-down complex: disrupted
